The test system of one data set is Danio rerio embryos. Nature of the data set: Fish Embryo Acute Toxicity (FET) test, OECD No. 236. The following applies: for toxicity for zebrafish embryos and larvae (in words): FET test, based on LC50; for percentage of non-lethal morphological abnormalities: zebrafish larvae 96 hpf; for heart rate vs negative (E3) and solvent (1% DMSO) controls: zebrafish larvae, 96 h. The method, then: Wild-type AB strain zebrafish (Danio rerio) were housed in the Experimental Medicine Centre of Medical University of Lublin (Lublin, Poland), where all the experimental procedures on embryos and larvae were carried out. The animals were kept on a recirculating water supply at 26 ± 1 °C and a 10/14 dark–light cycle, and they were fed with artemia and commercial feed. Danio rerio embryos were obtained from females between 4 and 15 months of age. […] In order to avoid genetic bias in the study, eggs were randomly collected from at least three breeding groups, rinsed, and placed in Petri dishes in the cultured medium, which for Danio rerio is E3 solution. […] In accordance with the legislation of the European Union and Poland, the experiments performed on the earliest life-stages of Danio rerio until 120 h post-fertilization (120 hpf), not defined as protected, are not subject to regulations for animal experimentation.
They address the testing of chemicals using the Fish Embryo Acute Toxicity (FET) test with the species Danio rerio.
Immediately after fertilization, eggs were placed in sterile 24-well plates and exposed for 96 h to at least five concentrations of the test chemical, ranging from 1 to 500 µM and prepared ex tempore on each day of exposure, according to the principle of one egg per well and one concentration per plate. In each plate, 20 wells were filled with the solutions of the tested substance, and 4 wells of the last column were a negative internal control with E3 medium. Each well was filled with 2 mL of solution. Positive control plates were also prepared according to this scheme with 4 mg/L of 3,4-dichloroaniline (Sigma-Aldrich, Poznań, Poland) and a negative control with E3, and a negative solvent control with 1% DMSO, which was used as a solvent for the tested substances. At four time points, microscopic observations were made every 24 h. As indicators of mortality (so-called terminal observations; when at least one of these occurs, embryonic death is declared), the following were recorded: the coagulation of embryos, a lack of somite formation, a lack of detachment of the tail from the yolk sac and a lack of a heartbeat, which was observed from the 48th hour of the study. To confirm the absence of a heartbeat, a microscopic observation was conducted at 80× magnification for one minute. Then, the solutions of the tested chemicals, to maintain their constant composition throughout the test, were replaced with fresh ones, and the plates were incubated for another 24 h in an incubator at 26 ± 1 °C. […] In addition, a quantitative and qualitative summary of the morphological and physiological abnormalities that occurred in the tested Danio rerio embryos and larvae was also made. These included yolk sac edema, pericardial edema, spinal flexure, head deformities, tail deformities, developmental delay defined as a lack of hatching success for 96 hpf larvae, and also bradycardia.
Regression analysis was performed with Excel, and the above-mentioned values were obtained from the linear type of regression analysis. […] The results obtained from the heart rate study of 96 hpf zebrafish larvae were subjected to statistical analysis using one-way analysis of variance (ANOVA) and a post hoc Bonferroni test. The significance level was taken as p < 0.05.

The next data set has as its system H1563. Nature of the data set: MTT antiproliferative assay. In kind it is cell-based, human. The following applies: for pIC50: MTT, 24 h incubation, lung adenocarcinoma; for Selectivity Index: ratio IC50 HEK-293 / IC50 H1563. How it is done:
(§1) The in vitro studies were performed on the reference line HEK-293 (human embryonic kidney cells, ATCC® CRL-1573™) and […] human cancer cell lines: 769-P (adenocarcinoma, renal cells, ATCC® CRL-1933™) and HepG2 (carcinoma, hepatocellular, ATCC® HB-8065™), H1563 (adenocarcinoma, non-smallcell lung cancer, ATCC® CRL-5875™), LN-229 (glioblastoma, ATCC® CRL-2611™). Cells from the 769-P and H1563 cell lines were cultured in RPMI-1640 growth medium (PAN Biotech GmbH, Aidenbach, Bayern, Germany), cells from the HEK-293 and HepG2 cell lines were cultured in EMEM growth medium (PAN Biotech GmbH, Aidenbach, Bayern, Germany), and cells from the LN-229 cell line were cultured in DMEM growth medium (PAN Biotech GmbH, Aidenbach, Bayern, Germany) in sterile 75 cm^2 culture phalcones. Fetal bovine serum (PAN Biotech GmbH, Aidenbach, Bayern, Germany) at 10% of growth medium and antibiotics (Sigma-Aldrich, Poland) (2.5 µg/mL amphotericin B, 100 µg/mL penicillin, and 100 µg/mL streptomycin) were added to all media. Cells were cultured at 37 °C in an incubator with 5% CO2 flow until a cell layer was formed. Following this, the medium was removed, and the cells were washed with 0.25% trypsin solution with 2.21 mM EDTA (Corning Incorporated, Corning, NY, USA) in order to completely remove fetal bovine serum containing trypsin inhibitor. Finally, 6 mL of complete growth medium was added, and the cells were aspirated by gentle pipetting.
(§2) The determination of inhibitory concentration (IC50) in the HEK-293, 769-P, HepG2, H1563, and LN-229 cell cultures for selected hydrazide–hydrazones was performed using the MTT assay procedure. This test was performed according to the MTT Assay ECVAM n°17 protocol manual prepared by the European Centre for the Validation of Alternative Methods (ECVAM), an entity that aims to reduce in vivo testing in favor of in vitro and in silico methods. To 96-well sterile plates, 100 μL of cell suspensions, prepared in the appropriate medium at a concentration of 3 × 10^5 cells/mL, was added using a multichannel pipette. To achieve cell adhesion to the bottom of the plates, cells were incubated for 24 h at 37 °C with 5% CO2 flow and 90% humidity. To determine the growth-inhibitory concentration, the solutions of the tested substances (19–24) were prepared at concentrations ranging from 1 µM to 500 µM, added individually to the wells following the rule of 8 wells per concentration, and the plates were again incubated for 24 h at 37 °C and with 5% CO2 addition. We also prepared a background control (200 μL of the respective growth medium) and negative control (100 μL of cells in the appropriate growth medium + 100 μL of the growth medium), which provided information on the amount of formazan formed in the untreated cells. After a 24 h incubation period, the solutions were extracted from the cells; 190 μL of growth medium and 10 μL of 5 mg/mL MTT solution (Invitrogen, Waltham, MA, USA) were added each and incubated for 4 h. After this time, all medium was removed, 100 μL of DMSO (Corning Incorporated, Corning, NY, USA) was added to each well, and absorbance measurements were performed at 550 nm using a Power Weave xs spectrophotometric microplate reader (BioTek, Winooski, VT, USA). The decrease in absorbance is equivalent to the decrease in MTT formazan production, which is due to the decrease in mitochondrial dehydrogenase activity and indicates a cytotoxic effect from the tested substances. Cell viability is expressed as a percentage as the ratio of the absorbance of test substance-treated cells to the untreated cells. The experiments were repeated three times.
(§3) The significance level was taken as p < 0.05.
A general note: Formazan colour is commonly taken as a measure of viable cells.

A further data set relates to 769-P. Nature of the data set: MTT antiproliferative assay. Type of data set: cell-based, human. The following applies: for pIC50: Homo sapiens, 769-P, MTT, 24 h incubation, renal adenocarcinoma; for Selectivity Index: ratio IC50 HEK-293 / IC50 769-P. The method, then: as §1, §2, §3
The subject of a further data set is LN-229. Nature of the data set: MTT antiproliferative assay. In kind it is cell-based, human. The following applies: for pIC50: Homo sapiens, LN-229, MTT, 24 h incubation, glioblastoma; for Selectivity Index: ratio IC50 HEK-293 / IC50 LN-229. How it is done:
as §1, §2, §3

[1] abbreviates: zebrafish, 500 µM (150.62 mg/L).

pIC50: −log10 of the molar value. Entries after “also recorded” stand apart in the source; their conditions may differ.

As for `O=C(N/N=C/c1ccccc1[N+](=O)[O-])c1ccc(O)cc1O` [Compound 19, 2,4-dihydroxy-N-[(2-nitrophenyl)methylidene]benzohydrazide], in the data set with Danio rerio embryos, the “toxicity for zebrafish embryos and larvae (in words)” value (shortened to “toxicity”) is on record as “nontoxic; also recorded: negligible toxicity”. Also, the “percentage of non-lethal morphological abnormalities” value with Danio rerio embryos is on record as no more than 25%. In addition, the pIC50 (commonly the negative decadic logarithm of the IC50, by convention in mol/L) in the data set with H1563 (Homo sapiens, NCI-H1563, 24 h) is 4.18; with H1563, 4.18; in the data set on 769-P, 4.34; in the data set on LN-229, 3.89. Moreover, the “Selectivity Index” value with H1563 is 2.27 × 10^3; in the data set on 769-P, 3.29 × 10^3; in the data set with LN-229, 1.14 × 10^3.

For `O=C(N/N=C/c1cccc([N+](=O)[O-])c1)c1ccc(O)cc1O` [Compound 20, 2,4-dihydroxy-N-[(3-nitrophenyl)methylidene]benzohydrazide], in the data set with Danio rerio embryos, the “toxicity” value is listed as “nontoxic”. Moreover, in the data set on Danio rerio embryos, the “percentage of non-lethal morphological abnormalities” value was no more than 25%. Further, the pIC50 is 4.15 with H1563 (Homo sapiens, NCI-H1563, 24 h); less than 3.30 in the data set on 769-P; less than 3.30 with LN-229. Besides, in the data set with H1563, the “Selectivity Index” value is 1.89 × 10^2.

Regarding `O=C(N/N=C/c1ccc([N+](=O)[O-])cc1)c1ccc(O)cc1O` [Compound 21, 2,4-dihydroxy-N-[(4-nitrophenyl)methylidene]benzohydrazide], the “toxicity” value with Danio rerio embryos is listed as “moderate toxicity”. The “percentage of development delay” value in the data set on Danio rerio embryos (setting [1]) amounted to 10%. In addition, the “percentage of tail malformation” value in the data set with Danio rerio embryos (setting [1]) is 55%. The pIC50 is less than 3.30 in the data set on H1563 (Homo sapiens, NCI-H1563, 24 h); 4.91 in the data set on 769-P; 6.11 in the data set with LN-229.

For `O=C(N/N=C/c1ccccc1Cl)c1ccc(O)cc1O` [Compound 22, N-[(2-chlorophenyl)methylidene]-2,4-dihydroxybenzohydrazide], in the data set with Danio rerio embryos, the “toxicity” value was “quite toxic”. Further, the pIC50 in the data set with H1563 (Homo sapiens, NCI-H1563, 24 h) is 3.66; in the data set with 769-P, 3.58; in the data set on LN-229, 3.96. The “Selectivity Index” value in the data set with H1563 stood at 1.45; in the data set on 769-P it was 1.20; with LN-229, 2.85.

Consider `O=C(N/N=C/c1ccccc1Br)c1ccc(O)cc1O` [Compound 23, N-[(2-bromophenyl)methylidene]-2,4-dihydroxybenzohydrazide], for which the “toxicity” value in the data set on Danio rerio embryos is recorded as “quite toxic”. In addition, the “percentage of yolk sac edema” value in the data set with Danio rerio embryos (zebrafish embryos and larvae, 100 µM (35.52 mg/L)) turned out to be 80%. The pIC50 in the data set on H1563 (Homo sapiens, NCI-H1563, 24 h) is 4.00; with 769-P it was less than 3.30; in the data set on LN-229, 3.80. Further, the “Selectivity Index” value with H1563 is given as 9.08 × 10^2; with LN-229, 5.85 × 10^2.

Consider `O=C(N/N=C/c1ccccc1F)c1ccc(O)cc1O` [Compound 24, N-[(2-fluorophenyl)methylidene]-2,4-dihydroxybenzohydrazide], for which, in the data set on Danio rerio embryos, the “toxicity” value is “nontoxic”. The “heart rate vs negative (E3) and solvent (1% DMSO) controls” value in the data set with Danio rerio embryos (50 µM (13.71 mg/L)) is listed as “no changes”; in the data set with Danio rerio embryos (100 µM (27.42 mg/L), p < 0.01), “decrease in heartbeat (bradycardia)”; in the data set with Danio rerio embryos (500 µM (137.12 mg/L), p < 0.001), “the reduction was very statistically significant”. In addition, the “percentage of pericardial edema” value with Danio rerio embryos (zebrafish, 100 µM (27.42 mg/L)) was found to be 65%; in the data set on Danio rerio embryos (zebrafish, 500 µM (137.12 mg/L)) it was 85%. The pIC50 in the data set with H1563 (Homo sapiens, NCI-H1563, 24 h) was 3.70; in the data set on 769-P it was less than 3.30; with LN-229, 3.70. In addition, the “Selectivity Index” value in the data set with H1563 and in the data set on LN-229 was 1.94 in each case.

(Values after article PMC10743905, “Design, Synthesis, and In Vitro and In Vivo Bioactivity Studies of Hydrazide–Hydrazones of 2,4-Dihydroxybenzoic Acid” (International Journal of Molecular Sciences, 2023).)
